Reference: ChEMBL document CHEMBL1201862, “PubChem BioAssay data set” (2004)
Calls of active or inactive are those of the source.

Assays:
[1] = molecular target: T1, Heat shock factor protein 1 (Mus musculus, UniProt P38532); experiment: decrease of HSF1-responsive luciferase luminescence – cell-based, NIH3T3, dose retest, confirmation (AID 2382); type: functional;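 also: NIH3T3 fibroblasts with HSF1-driven luciferase reporter stressed by proteasome inhibitor MG132; luminescence from HSF1-driven luciferase expression after 8 hours of MG132 stress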
T1 sequence (P38532 whole entry): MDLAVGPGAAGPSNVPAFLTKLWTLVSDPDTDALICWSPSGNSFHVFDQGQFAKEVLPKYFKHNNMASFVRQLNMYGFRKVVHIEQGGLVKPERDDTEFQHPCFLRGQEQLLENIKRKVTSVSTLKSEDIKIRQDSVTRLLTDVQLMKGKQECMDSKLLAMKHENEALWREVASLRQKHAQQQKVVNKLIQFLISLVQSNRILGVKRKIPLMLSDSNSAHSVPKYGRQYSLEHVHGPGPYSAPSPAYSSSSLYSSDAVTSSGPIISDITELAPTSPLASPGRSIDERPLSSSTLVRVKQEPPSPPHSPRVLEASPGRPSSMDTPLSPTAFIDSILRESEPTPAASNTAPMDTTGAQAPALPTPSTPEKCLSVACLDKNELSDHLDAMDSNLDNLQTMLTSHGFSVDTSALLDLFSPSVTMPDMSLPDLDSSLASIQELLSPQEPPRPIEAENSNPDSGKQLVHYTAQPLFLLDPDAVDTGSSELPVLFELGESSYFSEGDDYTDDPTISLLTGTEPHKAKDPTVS

Cytochrome P450 2C19 = Cytochrome P450 2C19 (Homo sapiens, UniProt P33261); experiment: Cytochrome panel assay with activity outcomes. Panel member name: p450-cyp2c19 Compounds with AC50 equal or less than 10 uM are considered active; type: functional; settings: read-out: AC50
Cytochrome P450 1A2 = molecular target: T2, Cytochrome P450 1A2 (Homo sapiens, UniProt P05177);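 also: PubChem cytochrome P450 panel assay, CYP1A2 panel member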
T2 sequence (P05177 whole entry): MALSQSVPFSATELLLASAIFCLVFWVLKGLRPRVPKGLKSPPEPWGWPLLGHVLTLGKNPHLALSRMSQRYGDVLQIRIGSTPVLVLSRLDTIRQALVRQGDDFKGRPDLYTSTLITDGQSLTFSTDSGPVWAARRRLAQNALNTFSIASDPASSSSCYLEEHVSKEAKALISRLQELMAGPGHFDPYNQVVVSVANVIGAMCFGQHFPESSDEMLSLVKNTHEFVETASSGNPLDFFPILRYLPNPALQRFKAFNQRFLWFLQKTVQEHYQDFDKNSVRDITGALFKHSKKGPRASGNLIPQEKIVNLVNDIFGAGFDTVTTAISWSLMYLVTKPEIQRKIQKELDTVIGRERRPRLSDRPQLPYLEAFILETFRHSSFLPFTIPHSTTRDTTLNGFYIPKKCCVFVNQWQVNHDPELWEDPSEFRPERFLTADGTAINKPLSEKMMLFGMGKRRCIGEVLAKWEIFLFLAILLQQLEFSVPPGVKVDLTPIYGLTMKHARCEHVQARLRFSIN

Cytochrome P450 3A4 = Cytochrome P450 3A4 (Homo sapiens, UniProt P08684);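 also: CYP3A4 tested as one member of a cytochrome P450 panel screen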
Cytochrome P450 2D6 = Cytochrome P450 2D6 (Homo sapiens, UniProt P10635);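 also: CYP2D6 member of a cytochrome P450 panel assay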
Cytochrome P450 2C9 = Cytochrome P450 2C9 (Homo sapiens, UniProt P11712)
[2] = system: Streptococcus sp. 'group A'; experiment: Streptococcus pyogenes SK(-)GAS viability under kanamycin – luminescence, BacTiterGlo, confirmation, counter-screen for streptokinase expression inhibitor project, dose response (AID 1900); type: functional, organism-based
Streptokinase A = molecular target: T3, Streptokinase A (Streptococcus pyogenes serotype M1, UniProt P10520); experiment: viability-normalized secreted streptokinase activity reduction – plasminogen activation absorbance, OD405, dose response (AID 1914); type: functional, Streptococcus pyogenes M1 GAS;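 also: secreted streptokinase activity via plasminogen activation per viability signal from cell pellet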
T3 sequence (P10520 whole entry): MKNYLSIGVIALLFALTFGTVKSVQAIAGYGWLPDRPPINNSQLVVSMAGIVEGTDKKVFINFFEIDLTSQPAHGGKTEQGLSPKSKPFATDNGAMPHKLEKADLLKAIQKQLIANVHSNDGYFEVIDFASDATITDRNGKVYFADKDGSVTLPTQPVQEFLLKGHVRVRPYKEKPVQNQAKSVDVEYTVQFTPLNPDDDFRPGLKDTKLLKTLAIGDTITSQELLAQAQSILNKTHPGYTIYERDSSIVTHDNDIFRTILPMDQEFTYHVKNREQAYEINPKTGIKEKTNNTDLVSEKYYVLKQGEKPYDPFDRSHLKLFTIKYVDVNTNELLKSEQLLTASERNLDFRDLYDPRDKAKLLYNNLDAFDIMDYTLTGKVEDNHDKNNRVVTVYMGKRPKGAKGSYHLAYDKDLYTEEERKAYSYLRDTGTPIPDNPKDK

[3] = Trypanosoma cruzi growth suppression in host cells – NIH3T3 host cells, beta-gal luminescence, confirmation (AID 2044); type: functional, cell-based;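 also: intracellular parasites grown in NIH/3T3 mouse fibroblasts as host cells; luminescent beta-galactosidase reporter signal from transgenic T. cruzi replicating inside host cells; inhibitors lower the luminescence signal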
[4] = NIH3T3 cell viability loss – ATP luminescence, mouse fibroblasts, counter-screen, dose response (AID 2010); type: functional, cell-based;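 also: cells exposed to compound for about 90 hours before reading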
Streptococcus = experiment: GAS UMAA2166 growth inhibition – luminescence, BacTiterGlo, counter-screen for streptokinase expression inhibitor project, dose response (AID 1915); type: functional, organism-based;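 also: potency for reduction of bacterial viability or growth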
[5] = Luminescence Cell-Based Dose Retest to Confirm Inhibitors of Cancer Stem Cells. [Related pubchem assays (depositor defined):AID2717, AID2721]; type: functional, Homo sapiens; settings: Homo sapiens
[6] = molecular target: T4, Replicative DNA helicase DnaB (Mycobacterium tuberculosis, UniProt P9WMR3); experiment: DnaB intein splicing inhibitors, dose response, biochemical, cell-free fluorescence (AID 449749); type: functional
T4 sequence (P9WMR3 whole entry): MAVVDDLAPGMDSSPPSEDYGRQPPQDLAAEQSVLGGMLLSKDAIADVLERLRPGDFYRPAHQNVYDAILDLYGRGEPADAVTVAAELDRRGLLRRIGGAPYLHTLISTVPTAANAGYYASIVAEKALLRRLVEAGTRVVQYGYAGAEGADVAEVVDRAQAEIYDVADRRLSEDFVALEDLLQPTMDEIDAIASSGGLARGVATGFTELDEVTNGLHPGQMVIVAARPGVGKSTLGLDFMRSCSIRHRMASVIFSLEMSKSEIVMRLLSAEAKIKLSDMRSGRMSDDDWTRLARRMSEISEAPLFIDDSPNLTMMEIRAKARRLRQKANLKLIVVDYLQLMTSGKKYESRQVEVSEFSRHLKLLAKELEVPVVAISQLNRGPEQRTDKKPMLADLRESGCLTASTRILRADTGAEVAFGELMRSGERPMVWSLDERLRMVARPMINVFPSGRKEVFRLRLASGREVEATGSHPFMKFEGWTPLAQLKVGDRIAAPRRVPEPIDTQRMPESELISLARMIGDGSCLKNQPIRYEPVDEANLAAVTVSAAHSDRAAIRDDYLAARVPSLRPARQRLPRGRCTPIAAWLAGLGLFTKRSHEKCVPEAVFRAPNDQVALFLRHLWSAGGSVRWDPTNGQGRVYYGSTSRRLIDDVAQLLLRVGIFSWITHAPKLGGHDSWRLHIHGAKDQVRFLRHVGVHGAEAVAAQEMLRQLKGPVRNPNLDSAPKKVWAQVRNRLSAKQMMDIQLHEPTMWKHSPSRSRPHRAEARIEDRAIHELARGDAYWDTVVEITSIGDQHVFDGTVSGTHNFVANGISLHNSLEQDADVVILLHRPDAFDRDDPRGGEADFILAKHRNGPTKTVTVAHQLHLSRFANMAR

Protein RecA = molecular target: T5, Protein RecA (Mycobacterium tuberculosis, UniProt P9WHJ3); experiment: Fluorescence Cell-Free Homogeneous Dose Retest to Identify Inhibitors of RecA-Intein Splicing Activity. [Related pubchem assays (depositor defined):AID2097, AID2223, AID489010, AID492950]; type: functional
T5 sequence (P9WHJ3 whole entry): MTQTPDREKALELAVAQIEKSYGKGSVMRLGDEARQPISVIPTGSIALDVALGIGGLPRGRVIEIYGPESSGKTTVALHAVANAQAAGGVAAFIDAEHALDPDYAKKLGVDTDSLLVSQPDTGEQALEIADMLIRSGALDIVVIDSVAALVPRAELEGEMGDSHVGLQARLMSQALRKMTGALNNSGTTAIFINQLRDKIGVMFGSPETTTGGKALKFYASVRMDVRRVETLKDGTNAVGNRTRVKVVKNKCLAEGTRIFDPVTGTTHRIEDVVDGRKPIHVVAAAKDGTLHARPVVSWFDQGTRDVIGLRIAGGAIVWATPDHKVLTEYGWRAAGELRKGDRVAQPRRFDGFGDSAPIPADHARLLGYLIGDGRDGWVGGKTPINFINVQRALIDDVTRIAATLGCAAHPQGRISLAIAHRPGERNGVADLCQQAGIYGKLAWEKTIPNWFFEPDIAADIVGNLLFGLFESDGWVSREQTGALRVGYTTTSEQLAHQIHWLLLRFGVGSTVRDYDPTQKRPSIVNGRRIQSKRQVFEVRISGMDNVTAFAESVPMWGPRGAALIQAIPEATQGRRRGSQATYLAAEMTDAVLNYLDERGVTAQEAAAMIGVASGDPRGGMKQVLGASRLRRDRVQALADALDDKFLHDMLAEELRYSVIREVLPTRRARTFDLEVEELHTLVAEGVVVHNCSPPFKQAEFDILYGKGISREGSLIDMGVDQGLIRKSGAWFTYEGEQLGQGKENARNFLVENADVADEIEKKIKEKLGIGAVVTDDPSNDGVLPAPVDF

Sequence of Cytochrome P450 2D6 (P10635 whole entry): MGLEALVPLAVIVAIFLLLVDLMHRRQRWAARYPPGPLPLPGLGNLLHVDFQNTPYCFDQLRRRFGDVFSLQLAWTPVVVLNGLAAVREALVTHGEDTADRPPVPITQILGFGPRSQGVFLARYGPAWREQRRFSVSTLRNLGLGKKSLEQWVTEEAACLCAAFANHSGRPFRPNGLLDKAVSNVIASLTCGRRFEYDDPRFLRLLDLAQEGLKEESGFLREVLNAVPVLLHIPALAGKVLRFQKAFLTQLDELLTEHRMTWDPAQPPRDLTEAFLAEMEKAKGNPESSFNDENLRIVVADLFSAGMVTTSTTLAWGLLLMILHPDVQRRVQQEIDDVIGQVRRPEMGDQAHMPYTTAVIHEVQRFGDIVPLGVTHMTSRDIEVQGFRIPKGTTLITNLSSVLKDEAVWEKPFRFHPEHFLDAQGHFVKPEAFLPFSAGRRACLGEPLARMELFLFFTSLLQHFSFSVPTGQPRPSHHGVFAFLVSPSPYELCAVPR
Sequence of Cytochrome P450 2C9 (P11712 whole entry): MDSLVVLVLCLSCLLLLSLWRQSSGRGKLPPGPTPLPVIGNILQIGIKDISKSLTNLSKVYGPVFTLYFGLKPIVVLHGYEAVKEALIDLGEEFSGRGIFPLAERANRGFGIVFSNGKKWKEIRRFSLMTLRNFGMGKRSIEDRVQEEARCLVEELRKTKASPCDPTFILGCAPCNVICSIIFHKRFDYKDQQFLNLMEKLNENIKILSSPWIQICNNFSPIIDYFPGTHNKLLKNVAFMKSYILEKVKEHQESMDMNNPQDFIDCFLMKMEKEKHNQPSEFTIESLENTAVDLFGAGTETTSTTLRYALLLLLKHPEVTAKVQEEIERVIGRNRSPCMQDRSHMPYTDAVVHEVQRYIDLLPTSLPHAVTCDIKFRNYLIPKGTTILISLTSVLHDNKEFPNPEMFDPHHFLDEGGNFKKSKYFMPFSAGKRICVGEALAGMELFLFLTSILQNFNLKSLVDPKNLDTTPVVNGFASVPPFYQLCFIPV
Sequence of Cytochrome P450 2C19 (P33261 whole entry): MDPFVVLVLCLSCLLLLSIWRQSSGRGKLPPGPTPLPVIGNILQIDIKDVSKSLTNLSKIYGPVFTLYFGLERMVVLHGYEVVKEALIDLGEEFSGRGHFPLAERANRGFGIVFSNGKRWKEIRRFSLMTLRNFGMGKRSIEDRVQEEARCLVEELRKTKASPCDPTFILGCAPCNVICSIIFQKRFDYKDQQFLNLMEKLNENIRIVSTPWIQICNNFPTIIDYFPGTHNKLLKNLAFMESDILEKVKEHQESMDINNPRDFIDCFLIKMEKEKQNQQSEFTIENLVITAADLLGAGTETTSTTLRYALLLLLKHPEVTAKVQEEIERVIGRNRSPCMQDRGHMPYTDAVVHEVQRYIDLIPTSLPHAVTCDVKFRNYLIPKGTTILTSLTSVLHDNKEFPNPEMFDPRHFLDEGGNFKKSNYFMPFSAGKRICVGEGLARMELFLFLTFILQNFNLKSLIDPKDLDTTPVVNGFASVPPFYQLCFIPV
Sequence of Cytochrome P450 3A4 (P08684 whole entry): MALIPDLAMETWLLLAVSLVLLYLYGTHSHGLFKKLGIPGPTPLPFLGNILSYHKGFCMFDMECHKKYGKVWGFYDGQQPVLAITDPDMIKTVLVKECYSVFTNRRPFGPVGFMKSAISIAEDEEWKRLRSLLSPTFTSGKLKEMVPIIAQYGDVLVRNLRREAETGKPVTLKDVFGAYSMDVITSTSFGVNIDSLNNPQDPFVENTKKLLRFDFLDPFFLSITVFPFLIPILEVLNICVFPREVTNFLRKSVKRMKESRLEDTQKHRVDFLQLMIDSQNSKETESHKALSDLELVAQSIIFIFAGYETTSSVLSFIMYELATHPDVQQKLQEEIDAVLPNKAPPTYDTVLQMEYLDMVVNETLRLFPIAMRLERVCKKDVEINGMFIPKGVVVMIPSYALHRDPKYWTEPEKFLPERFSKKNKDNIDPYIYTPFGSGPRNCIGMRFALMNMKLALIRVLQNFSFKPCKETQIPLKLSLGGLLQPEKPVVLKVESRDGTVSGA

SMILES	EC50 [1]	AC50 (Cytochrome P450 2D6)	other results
CCOC(=O)c1ccc(N/C=C/C(=O)c2ccc(OC)cc2)cc1	> 195 µM (not active)		AC50 (Cytochrome P450 2C19): 2.82 µM (inconclusive); AC50 (Cytochrome P450 1A2): 22.4 µM (inconclusive); AC50 (Cytochrome P450 3A4): 6.31 µM (inconclusive)
C#C[C@@]1(O)CC[C@@H]2[C@@H]3CCC4=C(CCC(=O)C4)[C@H]3CC[C@]21C		15.8 µM (inconclusive)	AC50 (Cytochrome P450 1A2): 12.6 µM (inconclusive)
CC(C)=CCN1CCN(Cc2cc(F)ccc2-n2nc(C)cc2C)CC1CCO (centres undefined)	> 195 µM (not active)		
c1cnc2ccc(C(c3nnnn3C3CCCC3)N3CCN4CCCC4C3)cc2c1 (centres undefined)		22.4 µM (inconclusive)	AC50 (Cytochrome P450 2C19): 25.1 µM (inconclusive); AC50 (Cytochrome P450 3A4): 6.31 µM (inconclusive); AC50 (Cytochrome P450 2C9): 14.1 µM (inconclusive)
Cc1cc(O)nc(CCl)n1	> 195 µM (not active)		
O=C(CSc1ccc(-c2ccccn2)nn1)NC1CCCCC1	> 195 µM (not active)		
CCC1CCCCN1CCCNC(=O)CSc1nc2nc(C)c(Cc3ccc(C)cc3)c(C)n2n1 (centres undefined)	> 195 µM (not active)		
Cc1cc(C2(c3cc(C)c(NC(=O)CN4CCOCC4)c(C)c3)CCCCC2)cc(C)c1NC(=O)CN1CCOCC1	> 195 µM (not active)		
Cc1cccc(OCC(=O)Nc2cccc(C(=O)NCC(C)C)c2)c1	> 195 µM (not active)		
Cc1cc(C(=O)CSc2ccc(F)cc2)cc(C)c1OC(=S)N(C)C	< 0.16 µM (active)		
CCS(=O)(=O)N1CCN(C(=O)c2ccccc2)CC1	> 195 µM (not active)		
COc1ccc(CCNC(=O)Cc2nn(C)c(=O)c3ccccc23)cc1OC	> 195 µM (not active)		
CCN(CC)CCNCc1cc(Cl)ccc1OCc1ccccc1F	> 195 µM (not active)		
CCOc1ccc(NCc2nnc(SCc3ccccc3Cl)n2-c2ccccc2)cc1	> 195 µM (not active)	25.1 µM (inconclusive)	
C=CCn1cc(Cl)c(=O)n(CC=C)c1=O		0.562 µM (inconclusive)	AC50 (Cytochrome P450 1A2): 14.1 µM (inconclusive); AC50 (Cytochrome P450 3A4): 25.1 µM (inconclusive)
CN1CCc2c(sc3c2c(=O)n(-c2ccc(Cl)cc2)c2nncn32)C1	> 195 µM (not active)		
Cc1ccc(S(=O)(=O)N(C)CC(=O)N2CCc3ccccc32)cc1	> 195 µM (not active)		
CC(C)Cn1cnc2c(SCc3ccc(Cl)cc3Cl)nc(N)nc21		7.94 µM (inconclusive)	AC50 (Cytochrome P450 1A2): 1.26 µM (inconclusive); AC50 (Cytochrome P450 2C9): 7.94 µM (inconclusive)
COc1ccc(-c2cc(C(=O)Nc3ccc(S(N)(=O)=O)cc3)c3ccccc3n2)cc1OC	> 195 µM (not active)		
COc1nc(N)c(C#N)c(-c2ccc(N(C)CCC#N)cc2)c1C#N	15.6 µM (active)		
COc1ccc(-n2c(=O)c(-c3ccc(Cl)cc3)nc3cnc(N(C)C)nc32)cc1		2.51 µM (inconclusive)	AC50 (Cytochrome P450 1A2): 10 µM (inconclusive)
Cc1c(/N=C/c2ccco2)n(Cc2ccccc2)c2ccccc12		4.47 µM (inconclusive)	AC50 (Cytochrome P450 2C19): 2.82 µM (inconclusive)
CCOC(=O)c1c(NC(=O)COC(=O)c2nccnc2N)sc(C(=O)N(C)C)c1C	> 195 µM (not active)		
COc1cccc(-c2c(NC(C)=O)n(C)c3ccccc3c2=O)c1	> 195 µM (not active)		
CCOc1nnc(C)c2c(C)n(-c3ccc(Cl)cc3)nc12		25.1 µM (inconclusive)	AC50 (Cytochrome P450 2C19): 31.6 µM (inconclusive); AC50 (Cytochrome P450 2C9): 25.1 µM (inconclusive)
Cc1ccnc(NC(c2ccsc2)c2ccc3ccc(C)nc3c2O)c1 (centres undefined)	> 195 µM (not active)		EC50 [2]: 10.6 µM (active); EC50 (Streptokinase A): > 150 µM (not active); EC50 [3]: 1.64 µM (active); EC50 [4]: 9.38 µM (active); EC50 (Streptococcus): 20.5 µM (active)
COc1ccccc1CCC(=O)OCC(=O)Nc1cccc(S(=O)(=O)N2CCOCC2)c1	> 195 µM (not active)		
CC(C)(C)C1CCc2c(sc(NC(=O)CSc3nc[nH]n3)c2C#N)C1 (centres undefined)	> 195 µM (not active)		AC50 [5]: 4.46 µM (active)
CCC(C)[C@H](NC(=O)NC1CCN(Cc2ccccc2)CC1)C(=O)OC (some centres undefined)		28.2 µM (inconclusive)	AC50 [6]: 39.9 µM (active); EC50 (Protein RecA): 2.96 µM (active); AC50 (Cytochrome P450 2C9): 2.24 µM (inconclusive)
